{"source": "patent US20230086152A1", "about": "“USE OF DESLORATADINE AND SALTS THEREOF IN PREPARING DRUG FOR TREATING NEURODEGENERATIVE DISEASE RELATED TO MOTOR DYSFUNCTION” (NANJING UNIVERSITY OF CHINESE MEDICINE, priority 2021, published 2023)", "assay_type_in_all_cases": "in vivo", "key": {"[1]": {"test_system": "SOD1-G93A model mice", "test": "Detection of onset time and survival cycle", "conditions": "model DLT group 20 mg/kg/day from the age of 56 days, p<0.05", "text": "4) Detection on onset time and survival cycle: The duration from onset to death of SOD1-G93A model mice is shorter, which is similar to the human ALS. Whether it can effectively delay the onset of the disease and prolong the survival cycle is an important indicator.\n(§1) 1) Animal grouping: Experimental test mice B6SJL-BTg (SOD1-G93A) 1Gur/J (002726) are purchased from Jackson Laboratory in the United States. A total of 48 SOD1-G93A mice are obtained by the gene identification, and their littermates are used as negative control, and they are randomly divided into 4 groups, which are: (1) a wild-type solvent group (2) a wild-type DLT group (20 mg/kg/day), (3) a model solvent group and (4) a model DLT group (20 mg/kg/day). All mice are administered from the age of 56 days (8 weeks old), and 12 mice in each group are sacrificed from the beginning of administration to the age of 120 days. […]\n5) Detection of onset time and survival cycle: The onset time of transgenic mice is defined as the dates when they first fall from the rotarod apparatus and will not persist for 180 seconds. The dates of deaths of the transgenic mice are defined as the deaths of the mice if the righting reflex cannot be completed within 30 seconds when the mice are lying on their sides, and the days are recorded as the death dates of the mice."}, "[2]": {"test_system": "SOD1-G93A model mice", "test": "Cage experimental test (limb grip strength)", "conditions": "model DLT group 20 mg/kg/day vs model solvent group; age of 14 to 15 weeks; FIG. 3", "text": "3) Cage experimental test: The SOD1-G93A model mice show atrophy of the hind limbs and decreased grip strength of the limbs after the onset of the disease. The handing strength at the limbs of the mice is detected by the cage experimental test.\nas §1, with “days. Histopathological, biochemical and immunological analyses are performed on tissues such as blood, muscles and spinal cords from eyeballs of mice.” for “days.”\n4) Cage experimental test: From the 8th week, the test is carried out once a week. […] The maximum time for the mice to grip the cage cover is recorded, the maximum time is set to be 90 seconds, and the specific time is recorded when it is less than 90 seconds. […]"}, "[3]": {"test_system": "SOD1-G93A model mice", "test": "Gait monitoring experimental test", "conditions": "model DLT group 20 mg/kg/day vs model solvent group; after the 15th week; FIG. 2", "method": "1) Animal grouping: Experimental test mice B6SJL-BTg (SOD1-G93A) 1Gur/J (002726) are purchased from Jackson Laboratory in the United States. A total of 48 SOD1-G93A mice are obtained by the gene identification, and their littermates are used as negative control, and they are randomly divided into 4 groups, which are: (1) a wild-type solvent group (2) a wild-type DLT group (20 mg/kg/day), (3) a model solvent group and (4) a model DLT group (20 mg/kg/day). All mice are administered from the age of 56 days (8 weeks old), and 12 mice in each group are sacrificed from the beginning of administration to the age of 120 days. Histopathological, biochemical and immunological analyses are performed on tissues such as blood, muscles and spinal cords from eyeballs of mice. Compounds are administered to the remaining mice until their deaths, which is used to detect the onset time and survival cycle of mice.\n3) Gait monitoring experimental test: In order to obtain footprints, the forefeet and hind feet of SOD1-G93A model mice are painted with red and green non-toxic pigments, respectively. The mice walk along a track with a length of 50 cm and a width of 10 cm, and the gaits of the mice are recorded. […] Footprints of the mice are analyzed, and the average of three result statistics is used in the analysis for recording the gait lengths of the mice."}, "[4]": {"test_system": "SOD1-G93A model mice", "test": "Rotarod experimental test", "conditions": "model DLT group 20 mg/kg/day vs model solvent group; days 101 to 115; FIG. 1", "text": "1) Rotarod experimental test: SOD1-G93A model mice will have motor dysfunction when they are onset, and therefore, the motor coordination and balance function of the forelimb and hind limbs can be assessed by detecting the duration that the mice stay on the rotarod.\nas §1\n2) Rotarod experimental test: From the age of 60 days, the motor function of SOD1-G93A model mice is detected by the rotarod apparatus. […] Motor coordination and balance are evaluated for each mouse by measuring the mouse's total movement time on the rotarod apparatus. Three trials are performed for each mouse, and the longest dwell time before falling is recorded, and the longest dwell time is set at 180 seconds."}}}
{"compound": "Clc1ccc2c(c1)CCc1cccnc1C2=C1CCNCC1", "note": "[desloratadine]", "values": [{"measurement": "onset time (first fall from the rotarod)", "setting": "[1]; model solvent group 97.6±1.473 d, FIG. 4", "result": "103.4 ± 1.705", "unit": "days"}, {"measurement": "survival cycle (failure to complete the righting reflex within 30 seconds)", "setting": "[1]; model solvent group 126±1.721 d, FIG. 5", "result": "131.6 ± 1.51", "unit": "days"}, {"measurement": "persistence in gripping the cage cover", "setting": "[2]", "result": "persist better"}, {"measurement": "gait length analysis", "setting": "[3]", "result": "significantly better"}, {"measurement": "time stayed on the rotarod", "setting": "[4]", "result": "much longer period of time"}]}
